This note sets out measurements from PMC10713593, “Staphylococcus aureus functional amyloids catalyze degradation of β-lactam antibiotics” (Nature Communications, 2023).

Where no end group is shown, it is not given here.

A word on the Vmax: it is the top rate of the reaction or transport when substrate is in excess. Broadly, the Km is the substrate concentration at which the rate is half of its maximum. Usually kcat stands for the maximal rate divided by the concentration of active sites.

A short description of data set [1]: Nitrocefin hydrolysis kinetics (absorbance of degraded nitrocefin at 480 nm; initial rates V0, Michaelis-Menten fit). It is filed as biochemical. On the set-up: Initial nitrocefin-degradation reaction rate, V0: unit not given here. As to conditions: for initial rate of nitrocefin degradation reaction (V0): peptide 170 µM, initial nitrocefin 107 µM, first 15 min (Fig. 3f); for Initial nitrocefin-degradation reaction rate, V0: Hepes pH 7.4, average of the six runs. As for the experimental part:
Nitrocefin, a β-lactam widely used as a surrogate substrate of Penicillin in β-lactamase activity assay, was used as a substrate. NC degradation was monitored for 2 h. Nitrocefin stock solution was dissolved in acetonitrile (20 mM) and then diluted with Hepes buffer (50 mM, pH 7.4) to nitrocefin concentration of 360 µM (further dilutions to lower concentrations were made with the 360 µM NC stock). All nitrocefin samples were kept on ice in cold conditions and any further dilution or mixing was performed in ice-cold conditions to avoid self-hydrolysis background reaction. […] Immediately after mixing the samples, the plate was transferred to 20̊ °C pre-cooled plate reader (Multiskan GO, Thermo Scientific, Waltham, MA) and shaken slowly for 10 s. Then, the absorbance of degraded nitrocefin was measured for 2 h at interval of 20 s at λ = 480 nm. Initial production rates (V0) were calculated by slope of the initial linear range of degraded-nitrocefin production at the first 15 min. The reported results are and average of at least five separate measurements (the exact number of repeats, N, is reported next to the values). Each experiment also included blank samples of nitrocefin substrate diluted with buffer instead of PSMα. […] The initial rate calculations were performed while also subtracting the self-degradation of the substrate, to ensure that this product absorbance is a result of PSMα presence.
The initial rates of degraded-nitrocefin production were calculated from the slopes of the first 15 min of measurement as reported above. The initial rates (V0) were fitted using non-linear regression applied with the solver function in excel, either to Michalis–Menten equation V=Vmax.[S]/(KM+S) Where Vmax. Stands for maximal reaction rate, KM stands for Michalis–Menten constant, [S] stands for the substrate molar concentration. Each initial rate value was presented as average ± SEM. The kinetic parameters were calculated by fitting the data to MM model using non-linear regression, and the confidence intervals for each parameter were calculated accordingly.

Assay in data set [2]: not given
The source holds these as a separate data set.

Data set [3] has as its system O=C(Cc1cccs1)N[C@@H]1C(=O)N2C(C(=O)O)=C(/C=C/c3ccc([N+](=O)[O-])cc3[N+](=O)[O-])CS[C@H]12. Briefly: Initial rates of nitrocefin hydrolysis by pre-assembled PSMα peptides (170 µM) followed by absorbance at 480 nm in 50 mM Hepes pH 7.4 at 20 °C, non-linear fit to the Michaelis-Menten equation. It counts as biochemical. How it is done: Measurements of V0 as function of initial substrate (nitrocefin) concentrations (keeping the PSMα concentration constant at 170 µM, assuring amyloid formation, e.g., above the 30 μM threshold) are depicted in Fig. 2c. […] Table S1 summarizes the pertinent enzymatic parameters extracted from the initial reaction rate data in Fig. 2c using non-linear regression fit to a MM reaction model. Figure 2d presents the catalytic efficiencies, calculated for each peptide by dividing the turnover rate by the MM-constant (Kcat/KM), considered a measure for both substrate binding affinity and conversion kinetics into product.
(§1) Nitrocefin, a β-lactam widely used as a surrogate substrate of Penicillin in β-lactamase activity assay, was used as a substrate. NC degradation was monitored for 2 h. Nitrocefin stock solution was dissolved in acetonitrile (20 mM) and then diluted with Hepes buffer (50 mM, pH 7.4) to nitrocefin concentration of 360 µM (further dilutions to lower concentrations were made with the 360 µM NC stock). All nitrocefin samples were kept on ice in cold conditions and any further dilution or mixing was performed in ice-cold conditions to avoid self-hydrolysis background reaction. 120 µL of the pre-cooled nitrocefin solutions were mixed inside precooled clear 96-well plate (Greiner F-bottom) with 60 µL of pre-incubated PSMα solution (510 µM PSMα, incubated in DIW and later buffered in Hepes 50 mM, pH 7.4). Immediately after mixing the samples, the plate was transferred to 20̊ °C pre-cooled plate reader (Multiskan GO, Thermo Scientific, Waltham, MA) and shaken slowly for 10 s. Then, the absorbance of degraded nitrocefin was measured for 2 h at interval of 20 s at λ = 480 nm. Initial production rates (V0) were calculated by slope of the initial linear range of degraded-nitrocefin production at the first 15 min. The reported results are and average of at least five separate measurements (the exact number of repeats, N, is reported next to the values). Each experiment also included blank samples of nitrocefin substrate diluted with buffer instead of PSMα. All presented results include subtraction of buffer control. The initial rate calculations were performed while also subtracting the self-degradation of the substrate, to ensure that this product absorbance is a result of PSMα presence.
The initial rates of degraded-nitrocefin production were calculated from the slopes of the first 15 min of measurement as reported above. […] The kinetic parameters were calculated by fitting the data to MM model using non-linear regression, and the confidence intervals for each parameter were calculated accordingly. […]
Values derive from the fitting of the initial rates to MM model and are presented as calculated-value ± confidence interval. […]

Data set [4] shares this test system. Briefly: Source-data fits for PSMα variants (170 µM): initial rates of nitrocefin hydrolysis (up to 240 µM) by absorbance at 480 nm in 50 mM Hepes pH 7.4 at 20 °C. It counts as biochemical. As for the experimental part: as §1
The initial rates of degraded-nitrocefin production were calculated from the slopes of the first 15 min of measurement as reported above. […] The kinetic parameters were calculated by fitting the data to MM model using non-linear regression, and the confidence intervals for each parameter were calculated accordingly.

The format of data set [5] is biochemical. Conditions: Fap 20 µM, nitrocefin 100 µM, A480, ten hours (Fig. S3). As for the experimental part:
Figure S3. Cross-β bacterial amyloids of Pseudomonas Aeruginosa. Fap B and Fap C were incubated for seven days at 37 °C for fibrillation. Then, upon appearance of typical turbidity the samples were diluted and nitrocefin was added to the samples, creating solutions of 20 µM Fap and nitrocefin in concentration of 100 µM. The absorbance of the nitrocefin was recorded in microplate reader at 480 nm for ten hours, resulting low absorbance relatively to the PSMα at close mass concentration (w/v, 300 µM). This comparison was necessary due to the major differences in sequence length of the Fap proteins and the short PSMα3 peptide. The results are shown as absorbance rather than product concentration due to the slight turbidity of the Fap samples.
(1 picture or pasted object on this page, not shown here)

Where [6] appears, read: AVG of runs, fit of V0 vs NC concentration.
Where [7] appears, read: Michaelis-Menten fit of nitrocefin titration, single run, block r246-r259.
[8] abbreviates: Michaelis-Menten fit of nitrocefin titration, single run, block r262-r275.
Where [9] appears, read: Michaelis-Menten fit of nitrocefin titration, single run, block r278-r291.
[10] abbreviates: Michaelis-Menten fit of nitrocefin titration, single run, block starting r293.

`CSCC[C@H](N)C(=O)N[C@@H](CCC(=O)O)C(=O)N[C@@H](Cc1ccccc1)C(=O)N[C@H](C(=O)N[C@@H](C)C(=O)N[C@@H](CCCCN)C(=O)N[C@@H](CC(C)C)C(=O)N[C@@H](Cc1ccccc1)C(=O)N[C@@H](CCCCN)C(=O)N[C@H](Cc1ccccc1)C(=O)N[C@H](Cc1ccccc1)C(=O)N[C@@H](CCCCN)C(=O)N[C@@H](CC(=O)O)C(=O)N[C@@H](CC(C)C)C(=O)N[C@@H](CC(C)C)C(=O)NCC(=O)N[C@@H](CCCCN)C(=O)N[C@@H](Cc1ccccc1)C(=O)N[C@@H](CC(C)C)C(=O)NCC(=O)N[C@@H](CC(N)=O)C(=O)N[C@@H](CC(N)=O)C(=O)O)C(C)C` [α3-(d)FF] yielded an ATR-FTIR amide-I shoulder of 1630 cm⁻¹. Also, in data set [1] (Hepes 50 mM pH 7.4, 20 °C), the “initial rate of nitrocefin degradation reaction (V0)” value (“initial rate” for short) came out at 30 µM/h. Further, in data set [2], the ATR-FTIR amide-I peak/maximum amounted to 1640 cm⁻¹.
Turning to KNKMFGVALFNFGFKEDLLFLK [α3-scrambled], the ATR-FTIR amide-I shoulder was 1680 cm⁻¹. For the same molecule, in data set [1] (setting [6]), the “Kcat” value turned out to be 3362023 s⁻¹ and the “Vmax” value worked out at 31897124362167 µM/h. For the same molecule, the “E [1/Ms] (catalytic efficiency)” value in data set [1] (AVG of runs, fit of V0 vs nitrocefin (NC) concentration) amounted to 0.653 M⁻¹ s⁻¹. Besides, in data set [1] (setting [7]), the “Kcat” value came to 406977 s⁻¹ and the “Vmax” value stood at 249070136309 µM/h. In addition, in data set [1] (setting [8]), the “Kcat” value came to 0.0002595 s⁻¹, the Michaelis constant (Km) worked out at 438 µM and the “Vmax” value was 158.82 µM/h. Moreover, in data set [1] (setting [9]), the “Kcat” value is 0.0002595 s⁻¹, the Michaelis constant (Km) is 438 µM and the maximum rate (Vmax) was determined as 158.82 µM/h. In data set [1] (setting [10]), the “Kcat” value was found to be 3.556e-05 s⁻¹, the Michaelis-Menten constant (Km) was 37.6 µM and the maximal velocity (Vmax) was determined as 21.76 µM/h. The “initial rate” value in data set [1] (Hepes 50 mM pH 7.4, 20 °C) worked out at 21 µM/h. In data set [2], this molecule had an ATR-FTIR amide-I peak/maximum of 1630 cm⁻¹.
MGIIAGIIKVIKSLIEQFTGK [PSMα1]: the “Initial nitrocefin-degradation reaction rate, V0” value in data set [1] (PSMα 4.01424 uM, nitrocefin 60 µM) is listed as 0.191; in data set [1] (PSMα 6.02136 uM, nitrocefin 60 µM) it was -0.01182; in data set [1] (PSMα 9.03205 uM, nitrocefin 60 µM), -0.1032; in data set [1] (PSMα 13.5481 uM, nitrocefin 60 µM), -0.1644; in data set [1] (PSMα 20.3221 uM, nitrocefin 60 µM), -0.2267; in data set [1] (PSMα 30.4832 uM, nitrocefin 60 µM) it was -0.2129. In addition, the “Initial nitrocefin-degradation reaction rate, V0” value was -0.2655 in data set [1] (PSMα 45.7247 uM, nitrocefin 60 µM); -0.7898 in data set [1] (PSMα 68.5871 uM, nitrocefin 60 µM); 9.2527 in data set [1] (PSMα 102.881 uM, nitrocefin 60 µM); 10.6002 in data set [1] (PSMα 154.321 uM, nitrocefin 60 µM); 20.6526 in data set [1] (PSMα 231.481 uM, nitrocefin 60 µM); 27.2811 in data set [1] (PSMα 347.222 uM, nitrocefin 60 µM). Moreover, the “nitrocefin degradation yield (turnover)” value in data set [1] (nitrocefin 60 µM, PSMα assemblies 350 µM, Hepes 50 mM pH 7.4, 20 °C, A480, monitored 2 h (Fig. 2a)) was ~ 50%. The molecule also showed an ATR-FTIR amide-I peak/maximum in data set [2] of 1650 cm⁻¹.
Consider “MQFVAKLFKFFKNLLGKFLGNN-NH2 [α3-cationic]”, for which the “initial rate” value in data set [1] (Hepes 50 mM pH 7.4, 20 °C) is given as “around 60 µM/h”. Moreover, in data set [2], the ATR-FTIR amide-I peak/maximum was 1660 cm⁻¹.
With “PSMα1 (Staphylococcus aureus subsp. aureus NCTC 8325)”, in data set [3], the Km was determined as 200 µM.
On the same count and under the same terms, the value for “PSMα2 (Staphylococcus aureus subsp. aureus MW2)” was 230 µM; that for “PSMα3 (Staphylococcus aureus subsp. aureus NCTC 8325)” was 80 µM.
Still for that read-out and setting: the same measure for “PSMα4 (Staphylococcus aureus subsp. aureus MW2)”: 200 µM.
In the case of “a3-cationic (Staphylococcus aureus subsp. aureus NCTC 8325; D13N/E2Q)”, in data set [4], the Km came to 772.188 µM, the Vmax came out at 8.13 µM/min and the kcat was found to be 0.00116 s⁻¹.

B1: FapC: cross-β Pseudomonas Aeruginosa-originated bacterial amyloid (protein, UniProt Q9I2F0 25-340, looked up)
Functional amyloid subunit …: GNEGGWHPPKPNPQSNNKGGATALVVDTQQNYNNKVSNFGTLNNASVSGSIKDASGNVGVNVAAGDNNQQANAAALASADASFVFGTATASTSVLQSGYGNTLNNYSNPNTASLSNSANNVSGNLGVNVAAGNFNQQKNDLAAAVSNGQYSTAGSAASQTSTGNTTVNSANYAYGGTYVSLKLNADGSYKGTSDQIGDVYLDTWEGQTHPGGSNTGHIDVDSQAQGAKDLNHDGGAFAFKEKGDVDLKGTVSGFIPAIVGFKTPVTNNASLSNSLQNVSGNVGVNIAAGGGNQQSNSLSIAAGCSSCPAGGESLGF
For B1, the “nitrocefin degradation by cross-β bacterial amyloids” value in data set [5] is on record as “minor nitrocefin degradation”.

B2: FapB: cross-β Pseudomonas Aeruginosa-originated bacterial amyloid (protein, UniProt Q9I2E9 20-189, looked up)
Functional amyloid subunit …: DPLASRNRASIDDSGTYRGNFALNQAAGDAQQQSNVRVVAVGSAALVGSDQRQHLQLDASQPIAASASISGAALRGSGILGVNQGAGLGNQQINAFRLSLSNGPESLDDSVLAQSVALTKVSGSATPVPGGRSVSTDDRAFAGSSGVVQVNQSAGVGNQSMNTLSVRVME
Consider B2, for which, in data set [5], the “nitrocefin degradation by cross-β bacterial amyloids” value is on record as “minor nitrocefin degradation”.
